Results: patent US20160145257A1, “SUBSTITUTED XANTHINES AND METHODS OF USE THEREOF” (Hydra Biosciences, Inc., priority 2013, published 2016)

Biological target: T1, hTRPC5 (Homo sapiens, UniProt Q9UL62)
T1 construct: expressed in transfected cells; host or cells: HEK293 TREx cells with inducible TRPC5 expression
T1 sequence (Q9UL62 1-973): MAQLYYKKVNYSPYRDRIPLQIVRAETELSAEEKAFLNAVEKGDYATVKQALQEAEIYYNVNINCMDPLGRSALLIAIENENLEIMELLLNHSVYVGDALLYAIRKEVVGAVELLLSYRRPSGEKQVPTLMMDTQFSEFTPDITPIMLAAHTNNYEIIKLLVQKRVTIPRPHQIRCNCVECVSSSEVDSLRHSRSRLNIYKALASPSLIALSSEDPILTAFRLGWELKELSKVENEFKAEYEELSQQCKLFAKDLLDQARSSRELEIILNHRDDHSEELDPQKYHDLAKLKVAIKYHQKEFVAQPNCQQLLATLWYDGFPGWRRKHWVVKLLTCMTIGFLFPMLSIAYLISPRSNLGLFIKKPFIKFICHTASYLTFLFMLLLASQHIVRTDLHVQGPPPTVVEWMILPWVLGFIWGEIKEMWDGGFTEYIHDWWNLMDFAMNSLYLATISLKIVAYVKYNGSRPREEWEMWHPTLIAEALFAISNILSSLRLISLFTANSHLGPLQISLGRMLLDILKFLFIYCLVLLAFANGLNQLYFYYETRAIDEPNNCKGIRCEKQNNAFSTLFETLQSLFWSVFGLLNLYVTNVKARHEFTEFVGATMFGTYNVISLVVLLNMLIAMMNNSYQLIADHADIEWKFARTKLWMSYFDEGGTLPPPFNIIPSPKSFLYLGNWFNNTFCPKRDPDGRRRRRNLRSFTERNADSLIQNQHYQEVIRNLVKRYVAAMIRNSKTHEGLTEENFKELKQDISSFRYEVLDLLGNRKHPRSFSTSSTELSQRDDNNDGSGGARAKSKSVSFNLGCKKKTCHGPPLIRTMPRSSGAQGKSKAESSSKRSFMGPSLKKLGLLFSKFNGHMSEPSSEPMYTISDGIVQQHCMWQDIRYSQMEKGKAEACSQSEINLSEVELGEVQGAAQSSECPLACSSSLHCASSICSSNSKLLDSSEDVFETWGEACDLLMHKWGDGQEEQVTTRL
Experiment: Whole-cell patch clamp, block of LaCl3-activated TRPC5 inward current
Format: cell-based
Details: TRPC5-expressing HEK293 TREx cells, 80 μM LaCl3, inward current, IC50 estimated from 5 μM and 500 nM, read-out: hTRPC5 Patch La3+ Inwd (nM) (All Batches)
How it was run: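 Whole-cell recordings in induced TRPC5-expressing HEK293 TREx cells, holding −40 mV, 400 ms ramps −120 to +100 mV every 5 s; current activated by 80 μM external LaCl3 and 1,400 nM pipette free Ca2+ (pH 7.2 internal, 7.4 external). Inward block at −80 mV, with LaCl3 present; IC50 estimated from testing at 5 μM and 500 nM.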

Row | SMILES | IC50 [nM]
1 | Cn1c(=O)c2c(nc(Oc3cccc(C#N)c3)n2Cc2cccc(Br)c2)n(C)c1=O [Compound 112, 3-(7-(3-bromobenzyl)-1,3-dimethyl-2,6-dioxo-2,3,6,7-tetrahydro-1H-purin-8-yloxy)benzonitrile] | 2000 to 10000
2 | CCCc1cccc(Oc2nc3c(c(=O)n(C)c(=O)n3C)n2Cc2cccc(Br)c2)c1 [Compound 113, 7-(3-bromobenzyl)-1,3-dimethyl-8-(3-propylphenoxy)-1H-purine-2,6(3H,7H)-dione] | < 100
3 | CC(=O)c1cccc(Oc2nc3c(c(=O)n(C)c(=O)n3C)n2Cc2cccc(Br)c2)c1 [Compound 114, 8-(3-acetylphenoxy)-7-(3-bromobenzyl)-1,3-dimethyl-1H-purine-2,6(3H,7H)-dione] | 1000 to 2000
4 | Cn1c(=O)c2c(nc(Oc3cccc(OC(F)(F)F)c3)n2Cc2cccc(Br)c2)n(C)c1=O [Compound 115, 7-(3-bromobenzyl)-1,3-dimethyl-8-(3-(trifluoromethoxy)phenoxy)-1H-purine-2,6(3H,7H)-dione] | < 100
5 | CC(Cc1nc2c(c(=O)n(C)c(=O)n2C)n1Cc1cccc(Br)c1)C(=O)O (stereo not drawn) [Compound 117, 3-(7-(3-Bromobenzyl)-1,3-dimethyl-2,6-dioxo-2,3,6,7-tetrahydro-1H-purin-8-yl)-2-methylpropanoic acid] | 2000 to 10000
6 | CCCOCCc1nc2c(c(=O)n(C)c(=O)n2C)n1Cc1ccc(C#N)cc1 [Compound 118] | 2000 to 10000
7 | CCCOCCc1nc2c(c(=O)n(C)c(=O)n2C)n1Cc1cccc(C#N)c1 [Compound 119] | 2000 to 10000
8 | CCCC(=O)CCOc1nc2c(c(=O)n(C)c(=O)n2C)n1Cc1cccc(Br)c1 [Compound 120] | 2000 to 10000
9 | CCCOCCc1nc2c(c(=O)n(C)c(=O)n2C)n1Cc1cccc(C(N)=O)c1 [Compound 121] | 2000 to 10000
10 | CCCC(O)C(C)(C)Sc1nc2c(c(=O)n(C)c(=O)n2C)n1Cc1cccc(Br)c1 (stereo not drawn) [Compound 122, 7-(3-bromobenzyl)-8-(3-hydroxy-2-methylhexan-2-ylthio)-1,3-dimethyl-1H-purine-2,6(3H,7H)-dione] | < 100
11 | C=C(CC(=O)OCC)c1nc2c(c(=O)n(C)c(=O)n2C)n1Cc1cccc(Br)c1 [Compound 123, ethyl 3-(7-(3-bromobenzyl)-1,3-dimethyl-2,6-dioxo-2,3,6,7-tetrahydro-1H-purin-8-yl)but-3-enoate] | 1000 to 2000
12 | Cn1c(=O)c2c(nc(Cc3cccc(CO)c3)n2Cc2cccc(Br)c2)n(C)c1=O [Compound 124] | 2000 to 10000
13 | CCOCc1cccc(C(CC)c2nc3c(c(=O)n(C)c(=O)n3C)n2Cc2cccc(Br)c2)c1 (stereo not drawn) [Compound 125, 7-(3-bromobenzyl)-8-(1-(3-(ethoxymethyl)phenyl)propyl)-1,3-dimethyl-1H-purine-2,6(3H,7H)-dione] | 500 to 1000
14 | CCOCc1cccc(Oc2nc3c(c(=O)n(C)c(=O)n3C)n2Cc2cccc(Br)c2)c1 [Compound 126, 7-(3-bromobenzyl)-8-(3-(ethoxymethyl)phenoxy)-1,3-dimethyl-1H-purine-2,6(3H,7H)-dione] | 100 to 500
15 | CN(C)C(=O)c1cccc(Oc2nc3c(c(=O)n(C)c(=O)n3C)n2Cc2cccc(Br)c2)c1 [Compound 127] | 2000 to 10000
16 | CCCOCCc1nc2c(c(=O)n(C)c(=O)n2C)n1Cc1cccc(-c2ccccc2)c1 [Compound 128, 7-(biphenyl-3-ylmethyl)-1,3-dimethyl-8-(2-propoxyethyl)-1H-purine-2,6(3H,7H)-dione] | 100 to 500
17 | CCCOCCc1nc2c(c(=O)n(C)c(=O)n2C)n1Cc1ccc(-c2ccccc2)cc1 [Compound 129, 7-(biphenyl-4-ylmethyl)-1,3-dimethyl-8-(2-propoxyethyl)-1H-purine-2,6(3H,7H)-dione] | 500 to 1000
18 | CCc1coc(CSc2nc3c(c(=O)n(C)c(=O)n3C)n2Cc2cccc(OC)c2)n1 [Compound 130, 8-((4-ethyloxazol-2-yl)methylthio)-7-(3-methoxybenzyl)-1,3-dimethyl-1H-purine-2,6(3H,7H)-dione] | 500 to 1000

Row | SMILES | IC50 [nM]
19 | CCc1coc(CSc2nc3c(c(=O)n(C)c(=O)n3C)n2Cc2ccc(OC)cc2)n1 [Compound 131, 8-((4-ethyloxazol-2-yl)methylthio)-7-(4-methoxybenzyl)-1,3-dimethyl-1H-purine-2,6(3H,7H)-dione] | 500 to 1000
20 | CCc1coc(CSc2nc3c(c(=O)n(C)c(=O)n3C)n2Cc2cccc(C)c2)n1 [Compound 132, 8-((4-ethyloxazol-2-yl)methylthio)-1,3-dimethyl-7-(3-methylbenzyl)-1H-purine-2,6(3H,7H)-dione] | 100 to 500
21 | CCc1coc(CSc2nc3c(c(=O)n(C)c(=O)n3C)n2Cc2ccc(C)cc2)n1 [Compound 133, 8-((4-ethyloxazol-2-yl)methylthio)-1,3-dimethyl-7-(4-methylbenzyl)-1H-purine-2,6(3H,7H)-dione] | 100 to 500
22 | CCc1coc(CSc2nc3c(c(=O)n(C)c(=O)n3C)n2Cc2cccc(Cl)c2)n1 [Compound 134, 7-(3-chlorobenzyl)-8-((4-ethyloxazol-2-yl)methylthio)-1,3-dimethyl-1H-purine-2,6(3H,7H)-dione] | 100 to 500
23 | CCOC(=O)CCC(C)c1nc2c(c(=O)n(C)c(=O)n2C)n1Cc1cccc(Br)c1 (stereo not drawn) [Compound 135, Ethyl 4-(7-(3-bromobenzyl)-1,3-dimethyl-2,6-dioxo-2,3,6,7-tetrahydro-1H-purin-8-yl)pentanoate] | 500 to 1000
24 | CCOC(=O)C(C)CCc1nc2c(c(=O)n(C)c(=O)n2C)n1Cc1cccc(Br)c1 (stereo not drawn) [Compound 136, Ethyl 4-(7-(3-bromobenzyl)-1,3-dimethyl-2,6-dioxo-2,3,6,7-tetrahydro-1H-purin-8-yl)-2-methylbutanoate] | 1000 to 2000
25 | Cn1c(=O)c2c(nc(Oc3cccc(C(F)(F)F)c3)n2Cc2cccc(Cl)c2)n(C)c1=O [Compound 137, 7-(3-Chlorobenzyl)-1,3-dimethyl-8-(3-(trifluoromethyl)phenoxy)-1H-purine-2,6(3H,7H)-dione] | 100 to 500
26 | Cn1c(=O)c2c(nc(Oc3cccc(C(F)(F)F)c3)n2Cc2cccc(Br)c2)n(C)c1=O [Compound 138, 7-(3-Bromobenzyl)-1,3-dimethyl-8-(3-(trifluoromethyl)phenoxy)-1H-purine-2,6(3H,7H)-dione] | 100 to 500
27 | Cn1c(=O)c2c(nc(Oc3cccc(CO)c3)n2Cc2cccc(Cl)c2)n(C)c1=O [Compound 140] | 2000 to 10000
28 | CCCOCCc1nc2c(c(=O)n(C)c(=O)n2C)n1Cc1cccc(CO)c1 [Compound 141] | 2000 to 10000
29 | Cn1c(=O)c2c(nc(Oc3cccc(C(F)(F)F)c3)n2Cc2ccc(Cl)nc2)n(C)c1=O [Compound 143, 7-((6-chloropyridin-3-yl)methyl)-1,3-dimethyl-8-(3-(trifluoromethyl)phenoxy)-1H-purine-2,6(3H,7H)-dione] | 2000 to 10000
30 | Cn1c(=O)c2c(nc(Oc3ccc(C(F)(F)F)cc3)n2Cc2ccc(Cl)cc2)n(C)c1=O [Compound 144] | 500 to 1000
31 | Cn1c(=O)c2c(nc(OCc3cccc(C(F)(F)F)c3)n2Cc2ccc(Cl)cc2)n(C)c1=O [Compound 145, 7-(4-chlorobenzyl)-1,3-dimethyl-8-(3-(trifluoromethyl)benzyloxy)-1H-purine-2,6(3H,7H)-dione] | < 100
32 | CCc1coc(CSc2nc3c(c(=O)n(C)c(=O)n3C)n2Cc2ccc(Cl)cc2)n1 [Compound 146, 7-(4-chlorobenzyl)-8-((4-ethyloxazol-2-yl)methylthio)-1,3-dimethyl-1H-purine-2,6(3H,7H)-dione] | < 100
33 | CCc1coc(CSc2nc3c(c(=O)n(C)c(=O)n3C)n2Cc2cccc(F)c2)n1 [Compound 147, 8-((4-ethyloxazol-2-yl)methylthio)-7-(3-fluorobenzyl)-1,3-dimethyl-1H-purine-2,6(3H,7H)-dione] | 100 to 500
34 | CCc1coc(CSc2nc3c(c(=O)n(C)c(=O)n3C)n2Cc2ccc(OC(F)(F)F)cc2)n1 [Compound 148, 8-((4-ethyloxazol-2-yl)methylthio)-1,3-dimethyl-7-(4-(trifluoromethoxy)benzyl)-1H-purine-2,6(3H,7H)-dione] | 100 to 500
35 | CCCOCCc1nc2c(c(=O)n(C)c(=O)n2C)n1Cc1ccc(C(N)=O)cc1 [Compound 149] | 2000 to 10000
36 | CCCC(=O)C(C)(C)Sc1nc2c(c(=O)n(C)c(=O)n2C)n1Cc1cccc(Br)c1 [Compound 150, 7-(3-bromobenzyl)-1,3-dimethyl-8-(2-methyl-3-oxohexan-2-ylthio)-1H-purine-2,6(3H,7H)-dione] | < 100
